Reference: patent publication US20240174744A1, “METHODS OF TREATMENT USING PROTEIN BINDERS TO IRHOM2 EPITOPES” (SCIRHOM GMBH, priority 2021, published 2024)

Tested on: LPS-induced release of TNFα from human macrophages from healthy donors
Assay: ELISA-based TNFα release assay, human macrophages from healthy donors
Format: cell-based
Conditions: Macrophage, recombinant murine antibodies, final concentration of 10 µg/ml, Batimastat 10 μM, LPS 5 ng/ml, 2 hours
Procedure: Complementary to Example 32 described above, ELISA-based TNFα release assays were performed to test the inhibitory effects of the antibodies on LPS-induced release of endogenous TNFα from human macrophages from healthy donors.
To obtain human macrophages, peripheral blood mononuclear cells (PBMCs) from 4 healthy donors were used. Cells from 5 ml human blood were resuspended in 20 ml of DMEM medium (Corning, USA) supplemented with 10% FCS (Atlanta Biological, USA) and Penicillin/Streptomycin (Corning, USA) (DMEM/FCS) and were then incubated on two 10 cm petri dishes (Thermo Fisher, USA) at 37° C., 5% CO2 for 3h. Non-adherent cells were subsequently removed and 6 ml of DMEM/FCS supplemented with 10 ng/ml human MCSF (Peprotech, USA) (DMEM/FCS/MCSF) was added per plate. Both plates were incubated at 37° C., 5% CO2 for 2 days, then 2 ml of DMEM/FCS/MCSF was added to each plate on day 2 and 4. On day 5, all medium was removed and attached cells were washed once with 5 ml PBS (Corning, USA). 2 ml of Accutase (Promocell, USA) solution was added to each plate and incubated at 37° C. for 15 min. 10 ml of DMEM/FCS was added to each plate and detached cells were collected in a 15 ml Falcon tube. Cells were subsequently pelleted in a tabletop centrifuge (Eppendorf, USA) at 1,500 rpm for 5 min. […] 10 μl from this cell suspension was manually counted in a hemocytometer (Thermo Fisher, USA). […]

For `CNC(=O)[C@H](Cc1ccccc1)NC(=O)[C@H](CC(C)C)[C@H](CSc1cccs1)C(=O)NO` [Batimastat], the inhibition at 10 µM was 68.3%.
